These results are taken from patent publication US8895750B2, “Heteroaromatic compounds as BTK inhibitors” (Boehringer Ingelheim International GmbH, priority 2013, dated 2014).

This test has as its target T1, full-length human His-tagged BTK (Homo sapiens, UniProt Q06187).
T1 construct: 6 nM of full-length human His-tagged BTK (Life Technologies cat #PV3587); His; purchased Life Technologies PV3587
The test can be described thus: BTK HTRF assay (Cisbio KinEASE-TK). The class given is biochemical. The note with it: 6 nM BTK, 15 min preincubation at 28° C., 1 uM TK substrate-biotin, 30 uM ATP. As for the experimental part:
An HTRF assay (Cisbio KinEASE-TK cat #62TK0PEC) was performed to quantitate the ability of test compounds to inhibit BTK mediated phosphorylation of substrate. Assays were assembled in 384 well plates where 6 nM of full-length human His-tagged BTK (Life Technologies cat #PV3587) and test compound at varying concentrations were preincubated for 15 minutes at 28° C. Then, 1 uM of TK substrate-biotin and 30 uM ATP were added and incubated for an additional 30 minutes at 28° C. Phospohrylation was detected by adding 62.5 nM Streptavidin-XL665 and TK-Antibody Cryptate diluted 1:100 in HTRF detection buffer (Cisbio cat #62SDBRDF) and incubated for 60 minutes at RT. The plate was read on an Envision plate reader and the fluoresence is measured at 620 nm (cryptate) and 665 nm (XL665). A ratio is calculated (665/620) and converted to POC relative to control and blank wells.
50 mM HEPES (Invitrogen #15630), 0.01% Brij-35 (sigma #B4184), 10 mM MgC12 (Sigma M1028), 1 mM EGTA (Ambion AM9262) and 100 uM sodium orthovanedate (Sigma S6508), 1 mM DTT (Sigma D5545) and 10 nM supplement enzyme buffer (Cisbio cat#61SEBALB).

Bounds are passed on as bounds.

T1 sequence (Q06187 whole entry): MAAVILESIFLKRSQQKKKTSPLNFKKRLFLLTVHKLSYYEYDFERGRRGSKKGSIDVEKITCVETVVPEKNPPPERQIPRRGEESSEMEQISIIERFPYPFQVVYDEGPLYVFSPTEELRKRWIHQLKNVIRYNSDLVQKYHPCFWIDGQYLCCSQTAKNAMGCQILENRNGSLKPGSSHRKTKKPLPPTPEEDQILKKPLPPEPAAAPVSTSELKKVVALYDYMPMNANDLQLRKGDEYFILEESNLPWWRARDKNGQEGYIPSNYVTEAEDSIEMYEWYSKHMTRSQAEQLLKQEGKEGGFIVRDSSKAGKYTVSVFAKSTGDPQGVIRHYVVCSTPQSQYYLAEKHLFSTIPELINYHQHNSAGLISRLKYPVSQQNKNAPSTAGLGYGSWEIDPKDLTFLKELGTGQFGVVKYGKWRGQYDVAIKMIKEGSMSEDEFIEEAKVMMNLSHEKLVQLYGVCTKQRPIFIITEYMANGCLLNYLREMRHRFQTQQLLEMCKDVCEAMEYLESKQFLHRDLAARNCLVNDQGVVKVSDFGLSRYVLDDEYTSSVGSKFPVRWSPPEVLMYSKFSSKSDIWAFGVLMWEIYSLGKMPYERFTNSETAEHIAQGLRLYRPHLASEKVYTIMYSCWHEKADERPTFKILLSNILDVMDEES

As to `C=CC(=O)N1CCC2(C1)CN(c1nc(-c3ccc(Oc4ccccc4)cc3)c(C(N)=O)s1)C2` [Example 1], the concentration for half-maximal inhibition (IC50) was 8.5 nM.

On to `C=CC(=O)N(C)C1CCN(c2nc(-c3ccc(Oc4ccccc4)cc3)c(C(N)=O)s2)CC1` [Example 2], for which the IC50 is 4.8 nM.

Take `CC#CC(=O)N(C)C1CCN(c2nc(-c3ccc(Oc4ccccc4)cc3)c(C(N)=O)s2)CC1` [Example 3]: the IC50 was 2.6 nM.

`CC#CC(=O)N[C@@H]1CCCN(c2nc(-c3ccc(Oc4ccccc4)cc3)c(C(N)=O)s2)C1` [Example 4] gave an IC50 of 95 nM.

As for `C=CC(=O)N[C@@H]1CCCN(c2nc(-c3ccc(Oc4ccccc4)cc3)c(C(N)=O)s2)C1` [Example 5], half-maximal inhibition (IC50) required 13 nM.

Consider `C=CC(=O)N1CCN(c2nc(-c3ccc(Oc4ccccc4)cc3)c(C(N)=O)s2)CC1` [Example 6], for which the IC50 was found to be 0.3 nM.

`CC#CC(=O)N1CCN(c2nc(-c3ccc(Oc4ccccc4)cc3)c(C(N)=O)s2)CC1` [Example 7] came in with an IC50 of 0.67 nM.

In the case of `C=CC(=O)N1CC2(CCN(c3nc(-c4ccc(Oc5ccccc5)cc4)c(C(N)=O)s3)C2)C1` [Example 8], half-maximal inhibition (IC50) required 5.6 nM.

`CC#CC(=O)N1CC2(CCN(c3nc(-c4ccc(Oc5ccccc5)cc4)c(C(N)=O)s3)C2)C1` [Example 9] had an IC50 of 4.3 nM.

Take `CN(C)C/C=C/C(=O)N1CC2(CCN(c3nc(-c4ccc(Oc5ccccc5)cc4)c(C(N)=O)s3)C2)C1` [Example 10]: the half-inhibitory concentration (IC50) is 110 nM.

Turning to `CC#CC(=O)N1CC2(C1)CN(c1nc(-c3ccc(Oc4ccccc4)cc3)c(C(N)=O)s1)C2` [Example 11], half-maximal inhibition (IC50) was put at 8.8 nM.

In turn, `C=CC(=O)N1CC2(C1)CN(c1nc(-c3ccc(Oc4ccccc4)cc3)c(C(N)=O)s1)C2` [Example 12] gave an IC50 of 4.1 nM.

`CN(C)C/C=C/C(=O)N1CC2(C1)CN(c1nc(-c3ccc(Oc4ccccc4)cc3)c(C(N)=O)s1)C2` [Example 13] registered a 50% inhibitory concentration (IC50) of 510 nM.

In turn, `C/C=C/C(=O)N1CC2(C1)CN(c1nc(-c3ccc(Oc4ccccc4)cc3)c(C(N)=O)s1)C2` [Example 14] yielded a concentration for half-maximal inhibition (IC50) of over 1000 nM.

`NC(=O)c1sc(N2CC3(CN(C(=O)/C=C/CN4CCOCC4)C3)C2)nc1-c1ccc(Oc2ccccc2)cc1` [Example 15] returned an IC50 of over 1000 nM.

Compound `CC#CC(=O)N1C[C@@H]2C[C@H]1CN2c1nc(-c2ccc(Oc3ccccc3)cc2)c(C(N)=O)s1` [Example 16] showed a half-inhibitory concentration (IC50) of 1.2 nM.

In the case of `C=CC(=O)N1CCN(c2nc(-c3ccc(Oc4ccccc4)cc3)c(C(N)=O)s2)[C@@H](C)C1` [Example 17], the IC50 stood at 0.87 nM.

Consider `CC#CC(=O)N1[C@@H]2CC[C@H]1CN(c1nc(-c3ccc(Oc4ccccc4)cc3)c(C(N)=O)s1)C2` [Example 18], for which the 50% inhibitory concentration (IC50) stood at 0.62 nM.

Compound `C=CC(=O)N1[C@@H]2CC[C@H]1CN(c1nc(-c3ccc(Oc4ccccc4)cc3)c(C(N)=O)s1)C2` [Example 19] returned a half-inhibitory concentration (IC50) of 0.48 nM.

`C[C@H](Cl)C(=O)N1CC2(C1)CN(c1nc(-c3ccc(Oc4ccccc4)cc3)c(C(N)=O)s1)C2` [Example 20]: it took 350 nM to reach half-maximal inhibition (IC50).

With `CC#CC(=O)N1CCN(c2nc(-c3ccc(Oc4ccccc4)cc3)c(C(N)=O)s2)[C@@H](C)C1` [Example 21], the half-maximal inhibitory concentration (IC50) was found to be 1.2 nM.

In turn, `CN(C)C/C=C/C(=O)N1CCN(c2nc(-c3ccc(Oc4ccccc4)cc3)c(C(N)=O)s2)CC1` [Example 22] showed a half-maximal inhibitory concentration (IC50) of 2 nM.

Consider `C=CC(=O)N1CCCC12CCN(c1nc(-c3ccc(Oc4ccccc4)cc3)c(C(N)=O)s1)CC2` [Example 23], for which the half-inhibitory concentration (IC50) is 43 nM.

Consider `CC#CC(=O)N1CCCC12CCN(c1nc(-c3ccc(Oc4ccccc4)cc3)c(C(N)=O)s1)CC2` [Example 24], for which the midpoint of inhibition, the IC50, lay at 150 nM.

`CC#CC(=O)N1CCN(c2nc(-c3ccc(Oc4ccccc4)cc3)c(C(N)=O)s2)CC1C` (stereo not shown) [Example 25]: it took 1 nM to reach half-maximal inhibition (IC50).

The compound `CN(C)CCC(=O)N1CCN(c2nc(-c3ccc(Oc4ccccc4)cc3)c(C(N)=O)s2)CC1` [Example 26] came in with an IC50 of 69 nM.

The compound `C=CC(=O)N1CCN(c2nc(-c3cnn(Cc4ccccc4)c3)c(C(N)=O)s2)CC1` [Example 27] yielded an IC50 of 710 nM.

With `CC#CC(=O)N1CCN(c2nc(-c3cnn(Cc4ccccc4)c3)c(C(N)=O)s2)CC1` [Example 28], the IC50 was over 1000 nM.

Regarding `C=CC(=O)N1CCN(c2nc(-c3ccc(Br)cc3)c(C(N)=O)s2)CC1` [Example 29], the IC50 worked out at 6.6 nM.

As for `CC#CC(=O)N1CCN(c2nc(-c3ccc(Br)cc3)c(C(N)=O)s2)CC1` [Example 30], the IC50 came out at 73 nM.

`CCC(=O)N1CC2(C1)CN(c1nc(-c3ccc(Oc4ccccc4)cc3)c(C(N)=O)s1)C2` [Example 31] came in with an IC50 of over 1000 nM.

In the case of `C=CC(=O)N1CCN(c2nc(-c3ccc(Oc4ccccc4)nc3)c(C(N)=O)s2)CC1` [Example 32], the IC50 stood at 17 nM.

Compound `CC#CC(=O)N1CCN(c2nc(-c3ccc(Oc4ccccc4)nc3)c(C(N)=O)s2)CC1` [Example 33] showed an IC50 of 180 nM.

Compound `C/C=C/C(=O)N1CCN(c2nc(-c3ccc(Oc4ccccc4)nc3)c(C(N)=O)s2)CC1` [Example 34] came in with an IC50 of 700 nM.

Compound `C=CC(=O)NC[C@@H]1CCCN1c1nc(-c2ccc(Oc3ccccc3)cc2)c(C(N)=O)s1` [Example 35] displayed a half-inhibitory concentration (IC50) of 11 nM.

Compound `CC#CC(=O)NC[C@@H]1CCCN1c1nc(-c2ccc(Oc3ccccc3)cc2)c(C(N)=O)s1` [Example 36] came in with a half-maximal inhibitory concentration (IC50) of 14 nM.

As for `CC(C)(O)C#CC(=O)N1CCN(c2nc(-c3ccc(Oc4ccccc4)cc3)c(C(N)=O)s2)CC1` [Example 37], half-maximal inhibition (IC50) required 0.65 nM.

The compound `CC#CC(=O)N1CCN(c2nc(-c3ccc(S(C)(=O)=O)cc3)c(C(N)=O)s2)CC1` [Example 38] came in with an IC50 of over 1000 nM.

Take `NC(=O)c1sc(N2CCN(C(=O)C#CCO)CC2)nc1-c1ccc(Oc2ccccc2)cc1` [Example 39]: 0.69 nM corresponded to half-maximal inhibition (IC50).

As for `C=CC(=O)NC[C@H]1CCCN1c1nc(-c2ccc(Oc3ccccc3)cc2)c(C(N)=O)s1` [Example 40], inhibition was half-maximal at 120 nM (IC50).

For `CC#CC(=O)NC[C@H]1CCCN1c1nc(-c2ccc(Oc3ccccc3)cc2)c(C(N)=O)s1` [Example 41], the IC50 was 30 nM.

For `NC(=O)c1sc(N2CCN(C(=O)C#CCN3CCOCC3)CC2)nc1-c1ccc(Oc2ccccc2)cc1` [Example 42], 0.7 nM corresponded to half-maximal inhibition (IC50).

Regarding `CN(C)C/C=C/C(=O)NC[C@@H]1CCCN1c1nc(-c2ccc(Oc3ccccc3)cc2)c(C(N)=O)s1` [Example 43], inhibition was half-maximal at 52 nM (IC50).

For `CN(C)C/C=C/C(=O)NC[C@H]1CCCN1c1nc(-c2ccc(Oc3ccccc3)cc2)c(C(N)=O)s1` [Example 44], half-maximal inhibition (IC50) required 560 nM.

Consider `CC#CC(=O)N1CCN(c2nc(-c3ccc(Oc4ccccc4)cn3)c(C(N)=O)s2)CC1` [Example 45], for which inhibition was half-maximal at 40 nM (IC50).

Compound `CC#CC(=O)N1CCN(c2nc(-c3cccc(C(=O)Nc4ccccc4)c3)c(C(N)=O)s2)CC1` [Example 46] had an IC50 of over 1000 nM.
